According to publication PMC6270165, “Synthesis and Biological Evaluation of 3-Benzisoxazolyl-4-indolylmaleimides as Potent, Selective Inhibitors of Glycogen Synthase Kinase-3β” (Molecules, 2013):

Legend:
Assay type in all cases: biochemical
JAK2 = target: T1, JAK2 (Homo sapiens, UniProt O60674); assay: JAK2 kinase assay (HTRF); conditions: read-out: JAK2 inhibition% at 0.8 μg/mL (~2 μM)
T1 construct: His-tag (N); made in house
Experimental: (§1) GSK3β belongs to CMGC family. Here, the other family members were used to evaluate the selectivity of GSK3β inhibitors, including PKC-epsilon (AGC family), JAK2 (TK family), Braf (TKL family), DRAK2 (CAMK family) and IKKβ (other family).The recombinant GST-GSK-3βprotein was expressed in Escherichia coli strain BL21-Codon Plus (DE3), purified by GSTrap affinity chromatography, and cleaved by thrombin. The GSK-3β kinase assay was carried out with the Z´-LYTETM Kinase Assay kit Ser/Thr 9 Peptide substrate (Invitrogen, Grand, NY, USA) in 10 μL reaction volume containing 50 nM enzyme, 30 μM ATP and 2 μM substrate peptide. Drak2 Proteins were presented by professor Jiang-ping Wu (Laboratory of Immunology, Research Centre, CHUM, Notre Dame Hospital, Pavilion DeSève). The Drak2 kinase reaction was performed in a final assay volume of 3.4 μL using the ADP-GLO Kinase Assay Kit (Promega, Madison, WI, USA), according the ADP-GLO protocol and read on an EnVision plate reader. The recombinant PKC-epsilon, IKKβ, and JAK2 with N-terminal His-tag were expressed using baculovirus expression system and purified with Ni-Beads. BRAF protein was from Carna Biosciences, Inc. (Kobe Port Island, Japan). And the related kinase reactions were performed in a final assay volume of 10 μL using the related HTRF Assay Kit (Cisbio, Codolet, France). Reactions were according the HTRF protocol and read on an EnVision plate reader. All reactions were carried out in triplicate. […] Data were expressed as mean ± SE.

IKK2 = target: T2, IKK2 (Homo sapiens, UniProt O14920); assay: IKK2 (IKKβ) kinase assay (HTRF); conditions: read-out: IKK2 inhibition% at 0.8 μg/mL (~2 μM)
T2 construct: His-tag (N); made in house
T2 sequence (O14920 1-756): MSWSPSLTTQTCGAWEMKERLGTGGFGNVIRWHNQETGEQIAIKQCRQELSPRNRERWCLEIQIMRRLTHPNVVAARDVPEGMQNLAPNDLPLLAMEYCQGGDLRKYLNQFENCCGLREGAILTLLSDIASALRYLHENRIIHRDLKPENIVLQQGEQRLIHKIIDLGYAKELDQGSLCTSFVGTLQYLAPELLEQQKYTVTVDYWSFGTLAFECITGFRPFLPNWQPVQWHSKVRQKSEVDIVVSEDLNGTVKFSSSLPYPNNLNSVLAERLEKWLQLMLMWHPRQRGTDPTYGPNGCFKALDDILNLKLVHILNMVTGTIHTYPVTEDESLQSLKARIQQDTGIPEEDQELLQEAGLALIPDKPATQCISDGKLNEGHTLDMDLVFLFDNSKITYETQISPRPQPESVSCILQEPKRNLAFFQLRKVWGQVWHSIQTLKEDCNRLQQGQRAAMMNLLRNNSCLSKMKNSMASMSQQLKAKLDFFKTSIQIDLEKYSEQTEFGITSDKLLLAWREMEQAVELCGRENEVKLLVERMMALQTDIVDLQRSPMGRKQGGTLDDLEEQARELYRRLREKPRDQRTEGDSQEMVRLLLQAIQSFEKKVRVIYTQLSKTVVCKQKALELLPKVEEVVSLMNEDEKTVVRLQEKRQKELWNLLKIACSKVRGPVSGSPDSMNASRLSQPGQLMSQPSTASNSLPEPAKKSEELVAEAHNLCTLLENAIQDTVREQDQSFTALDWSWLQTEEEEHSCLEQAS
Experimental: as §1

PKC-epsilon = target: T3, PKC-epsilon (Homo sapiens, UniProt Q02156); assay: PKC-epsilon kinase assay (HTRF); conditions: read-out: PKC-epsilon inhibition% at 0.8 μg/mL (~2 μM)
T3 construct: His-tag (N); made in house
T3 sequence (Q02156 1-737): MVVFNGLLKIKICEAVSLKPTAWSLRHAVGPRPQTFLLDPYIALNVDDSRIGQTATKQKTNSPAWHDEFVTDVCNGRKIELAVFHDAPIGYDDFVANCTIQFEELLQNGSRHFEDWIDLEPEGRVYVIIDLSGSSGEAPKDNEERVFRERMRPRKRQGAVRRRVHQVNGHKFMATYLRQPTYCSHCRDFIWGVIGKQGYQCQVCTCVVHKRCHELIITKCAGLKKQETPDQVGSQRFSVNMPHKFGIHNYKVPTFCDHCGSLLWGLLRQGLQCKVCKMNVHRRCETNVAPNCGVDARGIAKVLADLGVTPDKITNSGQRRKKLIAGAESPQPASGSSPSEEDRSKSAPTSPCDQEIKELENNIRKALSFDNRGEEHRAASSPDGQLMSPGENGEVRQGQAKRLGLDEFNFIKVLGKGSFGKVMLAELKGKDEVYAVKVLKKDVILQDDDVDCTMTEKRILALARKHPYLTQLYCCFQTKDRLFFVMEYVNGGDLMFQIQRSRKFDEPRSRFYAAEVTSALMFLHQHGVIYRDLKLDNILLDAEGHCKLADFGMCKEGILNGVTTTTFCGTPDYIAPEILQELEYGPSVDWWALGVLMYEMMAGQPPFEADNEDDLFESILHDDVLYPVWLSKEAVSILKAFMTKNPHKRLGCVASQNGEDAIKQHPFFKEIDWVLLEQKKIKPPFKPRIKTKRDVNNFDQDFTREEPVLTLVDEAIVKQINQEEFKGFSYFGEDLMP
Experimental: as §1

Drak2 = target: T4, Drak2 (Homo sapiens, UniProt O94768); assay: Drak2 kinase assay (ADP-GLO); conditions: read-out: Drak2 inhibition% at 0.8 μg/mL (~2 μM)
T4 sequence (O94768 1-372): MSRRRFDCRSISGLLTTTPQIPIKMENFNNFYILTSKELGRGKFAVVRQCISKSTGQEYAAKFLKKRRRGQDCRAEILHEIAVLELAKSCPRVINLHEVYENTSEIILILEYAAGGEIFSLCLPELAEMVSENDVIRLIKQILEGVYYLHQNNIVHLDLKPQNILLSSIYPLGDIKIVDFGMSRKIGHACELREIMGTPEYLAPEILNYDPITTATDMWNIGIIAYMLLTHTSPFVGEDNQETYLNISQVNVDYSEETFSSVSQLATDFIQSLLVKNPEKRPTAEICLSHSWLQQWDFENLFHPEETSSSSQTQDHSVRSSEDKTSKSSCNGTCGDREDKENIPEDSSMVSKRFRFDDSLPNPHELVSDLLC
Experimental: as §1

BRAF = target: T5, BRAF (Homo sapiens, UniProt P15056); assay: BRAF kinase assay (HTRF); conditions: read-out: BRAF inhibition% at 0.8 μg/mL (~2 μM)
T5 construct: purchased Carna Biosciences, Inc
Experimental: as §1

GSK-3β = target: T6, GSK-3β (Homo sapiens, UniProt P49841); assay: GSK-3β kinase assay (Z'-LYTE Kinase Assay kit Ser/Thr 9 Peptide); conditions: for IC50: 50 nM enzyme, 30 μM ATP, 2 μM substrate peptide, triplicate, mean ± SE, read-out: GSK-3β inhibitory activity IC50 (nM) ± SE; for Selectivity for GSK-3β over other tested kinases: versus PKC-epsilon, JAK2, BRAF, IKK2 and Drak2
T6 construct: GST (N, cleaved yes); made in house; host or cells: Escherichia coli BL21-Codon Plus (DE3)
Experimental: as §1

T6 sequence (P49841 whole entry): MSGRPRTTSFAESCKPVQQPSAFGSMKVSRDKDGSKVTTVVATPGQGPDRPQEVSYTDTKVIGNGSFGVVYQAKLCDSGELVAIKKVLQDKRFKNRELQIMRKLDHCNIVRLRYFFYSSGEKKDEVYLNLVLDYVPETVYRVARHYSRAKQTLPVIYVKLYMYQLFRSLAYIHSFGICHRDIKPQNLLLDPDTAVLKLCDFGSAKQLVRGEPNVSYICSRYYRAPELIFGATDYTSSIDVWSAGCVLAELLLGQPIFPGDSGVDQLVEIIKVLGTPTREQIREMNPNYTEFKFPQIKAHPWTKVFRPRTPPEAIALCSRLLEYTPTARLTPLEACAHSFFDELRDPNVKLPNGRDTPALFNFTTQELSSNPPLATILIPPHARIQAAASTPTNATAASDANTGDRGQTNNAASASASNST
T1 sequence (O60674 whole entry): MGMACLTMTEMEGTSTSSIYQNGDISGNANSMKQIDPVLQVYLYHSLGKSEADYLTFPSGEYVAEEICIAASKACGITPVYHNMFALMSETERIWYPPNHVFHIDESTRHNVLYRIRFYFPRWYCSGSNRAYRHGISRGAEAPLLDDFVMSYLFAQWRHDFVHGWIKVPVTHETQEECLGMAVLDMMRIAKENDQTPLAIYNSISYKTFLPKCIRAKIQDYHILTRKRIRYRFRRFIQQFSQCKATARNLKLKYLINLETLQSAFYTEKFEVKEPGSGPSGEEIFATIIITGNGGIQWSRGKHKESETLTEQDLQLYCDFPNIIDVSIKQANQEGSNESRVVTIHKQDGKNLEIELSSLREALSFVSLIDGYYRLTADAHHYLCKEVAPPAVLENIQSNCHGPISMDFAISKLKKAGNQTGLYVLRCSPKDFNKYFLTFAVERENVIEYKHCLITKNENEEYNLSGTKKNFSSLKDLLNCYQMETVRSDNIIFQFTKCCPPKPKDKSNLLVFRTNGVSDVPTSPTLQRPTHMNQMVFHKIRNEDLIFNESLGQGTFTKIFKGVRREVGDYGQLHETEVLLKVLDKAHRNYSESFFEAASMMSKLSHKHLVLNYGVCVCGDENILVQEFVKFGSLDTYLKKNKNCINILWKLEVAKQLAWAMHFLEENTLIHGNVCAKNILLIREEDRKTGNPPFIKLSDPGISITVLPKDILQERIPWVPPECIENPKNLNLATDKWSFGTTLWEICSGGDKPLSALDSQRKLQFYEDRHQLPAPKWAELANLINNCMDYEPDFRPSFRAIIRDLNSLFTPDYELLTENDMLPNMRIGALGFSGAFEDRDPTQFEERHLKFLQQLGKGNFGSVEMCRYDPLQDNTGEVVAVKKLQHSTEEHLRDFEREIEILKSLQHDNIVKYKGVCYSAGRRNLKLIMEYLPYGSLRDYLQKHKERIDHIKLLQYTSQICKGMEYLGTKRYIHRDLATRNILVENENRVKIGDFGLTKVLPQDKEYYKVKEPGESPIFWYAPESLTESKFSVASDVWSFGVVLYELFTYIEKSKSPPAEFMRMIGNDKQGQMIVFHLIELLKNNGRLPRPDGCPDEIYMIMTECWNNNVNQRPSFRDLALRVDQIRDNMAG
T5 sequence (P15056 whole entry): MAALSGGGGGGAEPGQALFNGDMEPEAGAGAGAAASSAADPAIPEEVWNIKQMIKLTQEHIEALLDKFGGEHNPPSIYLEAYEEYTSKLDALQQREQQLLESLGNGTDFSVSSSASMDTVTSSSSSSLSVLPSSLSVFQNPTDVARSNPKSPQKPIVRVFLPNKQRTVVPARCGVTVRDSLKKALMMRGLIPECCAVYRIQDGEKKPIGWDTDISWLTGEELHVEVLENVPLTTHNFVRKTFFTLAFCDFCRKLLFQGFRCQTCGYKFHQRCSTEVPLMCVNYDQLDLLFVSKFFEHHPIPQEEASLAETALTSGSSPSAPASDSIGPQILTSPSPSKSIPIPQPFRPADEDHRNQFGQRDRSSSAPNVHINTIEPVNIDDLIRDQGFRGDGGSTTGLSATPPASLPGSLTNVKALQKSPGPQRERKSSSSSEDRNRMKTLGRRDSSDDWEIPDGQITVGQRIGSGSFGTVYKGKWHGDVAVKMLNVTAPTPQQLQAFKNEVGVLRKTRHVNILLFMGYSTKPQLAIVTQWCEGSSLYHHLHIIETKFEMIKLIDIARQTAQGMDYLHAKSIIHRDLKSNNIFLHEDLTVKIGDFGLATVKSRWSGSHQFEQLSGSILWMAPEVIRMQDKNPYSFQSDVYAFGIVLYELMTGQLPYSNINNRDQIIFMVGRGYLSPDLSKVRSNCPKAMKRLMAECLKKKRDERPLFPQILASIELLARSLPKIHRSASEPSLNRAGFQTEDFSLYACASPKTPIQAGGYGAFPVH

| IC50 (GSK-3β) [nM] | SMILES | further results |
| --- | --- | --- |
| 0.73 ± 0.02 | O=C1NC(=O)C(c2cn(CCCn3ccnc3)c3ccccc23)=C1c1noc2ccccc12 [7j, 3-(1-(3-(1H-Imidazol-1-yl)propyl)-1H-indol-3-yl)-4-(benzo[d]isoxazol-3-yl)-1H-pyrrole-2,5-dione] | inhibition at 2 µM (JAK2): 4.9%; inhibition at 2 µM (IKK2): 3.5%; inhibition at 2 µM (PKC-epsilon): 10.9%; inhibition at 2 µM (Drak2): 4.47%; inhibition at 2 µM (BRAF): 0.8%; GSK-3β inhibitory potency, fold more potent than compound 7a (GSK-3β; ratio of IC50 values, versus 7a): about 460 fold; Selectivity for GSK-3β over other tested kinases (GSK-3β): high selectivity |
| 615.6 ± 6.1 | O=C1NC(=O)C(c2cn(CCN3CCOCC3)c3ccccc23)=C1c1noc2ccccc12 [7g, 3-(Benzo[d]isoxazol-3-yl)-4-(1-(2-morpholinoethyl)-1H-indol-3-yl)-1H-pyrrole-2,5-dione] | – |
| 357 ± 17.1 | COc1ccc2c(c1)c(C1=C(c3noc4ccccc34)C(=O)NC1=O)cn2CCCN1CCOCC1 [7b, 3-(Benzo[d]isoxazol-3-yl)-4-(5-methoxy-1-(3-morpholinopropyl)-1H-indol-3-yl)-1H-pyrrole-2,5-dione] | – |
| 659 ± 15.7 | O=C1NC(=O)C(c2cn(CCCN3CCCC3)c3ccccc23)=C1c1noc2ccccc12 [7n, 3-(Benzo[d]isoxazol-3-yl)-4-(1-(3-(pyrrolidin-1-yl)propyl)-1H-indol-3-yl)-1H-pyrrole-2,5-dione] | – |
| 38.9 ± 2.6 | O=C1NC(=O)C(c2cn(CCCO)c3ccccc23)=C1c1noc2ccccc12 [7q, 3-(Benzo[d]isoxazol-3-yl)-4-(1-(3-hydroxypropyl)-1H-indol-3-yl)-1H-pyrrole-2,5-dione] | – |
| 58.7 ± 2.8 | CCCCn1cc(C2=C(c3noc4ccccc34)C(=O)NC2=O)c2ccccc21 [7p, 3-(Benzo[d]isoxazol-3-yl)-4-(1-butyl-1H-indol-3-yl)-1H-pyrrole-2,5-dione] | – |
| 512 ± 15.6 | O=C1NC(=O)C(c2cn(CCCN3CCCCC3)c3ccccc23)=C1c1noc2ccccc12 [7m, 3-(Benzo[d]isoxazol-3-yl)-4-(1-(3-(piperidin-1-yl)propyl)-1H-indol-3-yl)-1H-pyrrole-2,5-dione] | – |
| 89.8 ± 4.5 | O=C1NC(=O)C(c2cn(CCCCn3ccnc3)c3ccccc23)=C1c1noc2ccccc12 [7k, 3-(1-(4-(1H-Imidazol-1-yl)butyl)-1H-indol-3-yl)-4-(benzo[d]isoxazol-3-yl)-1H-pyrrole-2,5-dione] | – |
| 22.1 ± 1.5 | Cn1cc(C2=C(c3noc4ccccc34)C(=O)NC2=O)c2ccccc21 [7o, 3-(Benzo[d]isoxazol-3-yl)-4-(1-methyl-1H-indol-3-yl)-1H-pyrrole-2,5-dione] | inhibition at 2 µM (JAK2): 9.4%; inhibition at 2 µM (IKK2): 2.9%; inhibition at 2 µM (PKC-epsilon): 21.2%; inhibition at 2 µM (Drak2): 13.8%; inhibition at 2 µM (BRAF): 1.1%; Selectivity for GSK-3β over other tested kinases (GSK-3β): high selectivity |
| 210 ± 8.9 | O=C1NC(=O)C(c2cn(CCCN3CCOCC3)c3cc(Br)ccc23)=C1c1noc2ccccc12 [7d, 3-(Benzo[d]isoxazol-3-yl)-4-(6-bromo-1-(3-morpholinopropyl)-1H-indol-3-yl)-1H-pyrrole-2,5-dione] | – |
| 20.9 ± 5.1 | O=C1NC(=O)C(c2cn(CCCn3cncn3)c3ccccc23)=C1c1noc2ccccc12 [7l, 3-(1-(3-(1H-1,2,4-Triazol-1-yl)propyl)-1H-indol-3-yl)-4-(benzo[d]isoxazol-3-yl)-1H-pyrrole-2,5-dione] | – |
| 510 ± 20.1 | O=C1NC(=O)C(c2cn(CCCN3CCOCC3)c3cc(Cl)ccc23)=C1c1noc2ccccc12 [7e, 3-(Benzo[d]isoxazol-3-yl)-4-(6-chloro-1-(3-morpholinopropyl)-1H-indol-3-yl)-1H-pyrrole-2,5-dione] | – |
| 411 ± 8.2 | O=C1NC(=O)C(c2cn(CCCCN3CCOCC3)c3ccccc23)=C1c1noc2ccccc12 [7i, 3-(Benzo[d]isoxazol-3-yl)-4-(1-(4-morpholinobutyl)-1H-indol-3-yl)-1H-pyrrole-2,5-dione] | – |
| 138 ± 6 | O=C1NC(=O)C(c2cn(CCCN3CCOCC3)c3ccccc23)=C1c1noc2ccccc12 [7h, 3-(Benzo[d]isoxazol-3-yl)-4-(1-(3-morpholinopropyl)-1H-indol-3-yl)-1H-pyrrole-2,5-dione] | – |
| 332 ± 25.7 | O=C1NC(=O)C(c2noc3ccccc23)=C1c1c[nH]c2ccccc12 [7a, 3-(Benzo[d]isoxazol-3-yl)-4-(1H-indol-3-yl)-1H-pyrrole-2,5-dione] | – |
